# Experimental data published in patent publication US12144814B2, “Compositions containing paraxanthine and beta-hydroxybutyrate or precursor for increasing neurological and physiological performance” (priority 2023, dated 2024).
# “Also recorded” adds a separate entry of the source.
# Legend:
# healthy young adults [1] = assay: Berg-Washington Card Sorting Task Test; type: in vivo; conditions: 200 mg paraxanthine, 5 g BHB, 200 mg paraxanthine and 5 g BHB
# From the text: The Berg-Washington Card Sorting Task (BCST) test is a test routinely used in the field to evaluate cognitive flexibility. The BCST test focuses on basic cognitive flexibility or set-shifting between old vs. new rule changes. The test involves reasoning, learning, executive control, and attention shifting. It is particularly sensitive to the subject's inability to shift set. Cards are shown with different colors (e.g., red, green, yellow, blue), different designs (e.g., circle, triangle, star, plus sign) and different numbers of symbols (e.g., 1-4) on the computer screen. Participants are asked to sort the cards by matching colors and/or designs and/or number of symbols, where the instruction for how to sort the cards can change, at different times during the test. Number of correct responses and number of errors (particular perservative errors, where the participant incorrectly continues sorting the cards under an old instruction, after a new instruction is given) are recorded. When running each such tests, subjects are given either paraxanthine+BHB, paraxanthine alone, BHB alone, or a placebo. The dosage amounts are 200 mg paraxanthine and 5 g of BHB, 200 mg of paraxanthine alone, 5 g of BHB alone, or a placebo. The testing is conducted under double blind, placebo controlled conditions. […]
# healthy young adults [2] = assay: Sternberg Test; type: in vivo; conditions: 200 mg paraxanthine; 5 g BHB; 200 mg paraxanthine and 5 g BHB; letter length 2, 4, 6; FIGS. 9-11
# From the text: The Sternberg Test is a test routinely used in the field to evaluate working memory, and ability to make use of short-term memory. A lower reaction time means that participants can access their working memory faster. The Sternberg Task Test is a widely used paradigm for studying short term/working memory involving cognitive control processes. Participants are asked to remember a short series of letters or other characters and then the participants has to respond if the series of letters or characters is present in a larger series of letters or characters. Reaction time is measured when the remembered short series is both present or absent. Mean response time is recorded. When running each such tests, subjects are given either paraxanthine+BHB, paraxanthine alone, BHB alone, or a placebo. The dosage amounts are 200 mg paraxanthine and 5 g of BHB, 200 mg of paraxanthine alone, 5 g of BHB alone, or a placebo. The testing is conducted under double blind, placebo controlled conditions. The subjects include 13 healthy young adults (10 male, 3 female), aged 24±5 years; height 170.0±11.8 cm; weight 72.9±19.3 kg.
# [3] = 28-day sports nutrition clinical study; type: in vivo; conditions: paraxanthine 100 mg, paraxanthine 100 mg with BHB 5 g, 28 days, exercise 5 days per week
# From the text: Participants exercise 5 days per week, of the 4-week study. […] Increases in nitric oxide levels, as well as improved blood lipids scores (e.g., TG, TC, LDL, HDL) are also observed.
# [4] = Age-related cognitive decline study; type: in vivo
# mice [5] = assay: Forced Swim Test on mice; type: in vivo; conditions: PX 100 mg
# mice [6] = assay: Cook's Pole Climbing Test on mice; type: in vivo; conditions: PX 100 mg
# [7] = Clinical Resting Energy Expenditure study; type: in vivo; conditions: paraxanthine 100 mg or 300 mg; BHB 5 g; paraxanthine 100 mg or 300 mg with BHB 5 g; 180-day period
# Description: FIGS. 16A-16B show expected results of a clinical Resting Energy Expenditure study, where participants are supplemented with paraxanthine alone (100 mg or 300 mg), BHB alone (5 g), or paraxanthine (100 mg or 300 mg) in combination with BHB (5 g) over a 180-day period. […] Because of the presence of the BHB ketone body component, such increased metabolic rate is also more likely to occur within the context of ketogenic state, where fat is principally used as the caloric energy source for the increased resting metabolic rate.
# [8] = cited from earlier work
# adenosine A1 receptors = target: T1, adenosine A1 receptors (Homo sapiens, UniProt P30542); conditions: compared with caffeine; cited from earlier work
# T1 sequence (P30542 1-326): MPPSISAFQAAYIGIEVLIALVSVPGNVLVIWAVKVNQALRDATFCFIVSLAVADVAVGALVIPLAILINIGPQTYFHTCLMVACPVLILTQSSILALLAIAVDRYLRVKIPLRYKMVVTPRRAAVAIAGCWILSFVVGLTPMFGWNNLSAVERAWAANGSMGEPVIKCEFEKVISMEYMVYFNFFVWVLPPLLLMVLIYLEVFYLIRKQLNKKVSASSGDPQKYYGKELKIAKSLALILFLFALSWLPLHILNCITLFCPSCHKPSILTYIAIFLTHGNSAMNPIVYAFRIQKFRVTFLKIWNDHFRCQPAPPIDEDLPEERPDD
# [9] = target: cGMP-preferring phosphodiesterase (PDE9) (Homo sapiens, UniProt O76083); conditions: cited from earlier work
# Chain of cGMP-preferring phosphodiesterase (PDE9) (O76083 whole entry): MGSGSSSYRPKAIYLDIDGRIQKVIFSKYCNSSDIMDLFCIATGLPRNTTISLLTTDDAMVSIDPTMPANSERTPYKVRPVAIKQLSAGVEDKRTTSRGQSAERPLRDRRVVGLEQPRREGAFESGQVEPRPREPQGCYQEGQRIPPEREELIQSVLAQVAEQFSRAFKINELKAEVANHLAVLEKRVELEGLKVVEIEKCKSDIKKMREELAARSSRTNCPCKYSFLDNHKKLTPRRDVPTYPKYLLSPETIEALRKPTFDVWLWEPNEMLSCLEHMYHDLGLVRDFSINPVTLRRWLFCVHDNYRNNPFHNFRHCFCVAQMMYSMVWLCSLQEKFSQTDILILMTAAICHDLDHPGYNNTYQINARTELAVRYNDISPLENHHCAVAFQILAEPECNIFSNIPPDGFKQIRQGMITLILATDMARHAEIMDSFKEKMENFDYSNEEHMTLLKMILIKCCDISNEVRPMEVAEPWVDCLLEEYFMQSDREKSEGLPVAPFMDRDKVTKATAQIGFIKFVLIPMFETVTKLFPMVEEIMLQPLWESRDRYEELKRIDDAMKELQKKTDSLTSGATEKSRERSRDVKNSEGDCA
# [10] = in vivo; cited from earlier work
# [11] = in vivo; cited from earlier work; remark: listed apart in the source
# dopaminergic neurons = conditions: cited from earlier work
# [12] = metabolite of caffeine, cited from earlier work
smiles,measurement,setting,value
"Cn1c(=O)[nH]c2ncn(C)c2c1=O [paraxanthine, 1,7-dimethylxanthine]",Berg-Washington Card Sorting Task Test number of correct responses,healthy young adults [1]; FIG. 7,significant increase in the number of correct responses
same,Berg-Washington Card Sorting Task Test number of errors,healthy young adults [1]; FIG. 8,reduction in the number of errors
same,Sternberg Test mean response time,healthy young adults [2],decreased mean response time
same,endurance (treadmill distance),[3]; FIG. 14A,some improvement
same,muscle mass,[3]; FIG. 14B,some improvement
same,grip strength,[3]; FIG. 14C,some improvement
same,Acetylcholine,[4]; PX 25 mg,61.04 U/mL
same,BDNF,[4]; PX 25 mg,828.05 pg/mL
same,Catalase,[4]; PX 25 mg,30.24 U/mL
same,Dopamine,[4]; PX 25 mg,493.65 ng/L
same,Escape Latency,[4]; PX 25 mg,49.9 s
same,Glutathione,[4]; PX 25 mg,24.04 µg/mL
same,Acetylcholine,[4]; PX 100 mg,69.27 U/mL
same,BDNF,[4]; PX 100 mg,939.15 pg/mL
same,Catalase,[4]; PX 100 mg,38.91 U/mL
same,Dopamine,[4]; PX 100 mg,596.32 ng/L
same,Escape Latency,[4]; PX 100 mg,21.31 s
same,Glutathione,[4]; PX 100 mg,34.41 µg/mL
same,Duration of Immobility,mice [5],5.85 min
same,Duration of mobility/active swimming,mice [5],24.15 min
same,No. of Climbing,mice [6],2.75
same,resting energy expenditure,[7],some increase in resting energy expenditure
same,half-life,"[8]; elimination half-life, FIG. 3",3.1 h
same,Total plasma clearance,[8]; in vivo,2.20 mL/min/kg
same,binding potency for adenosine A1 receptors,adenosine A1 receptors,higher binding potencies
same,inhibition of PDE9,[9],inhibits PDE9; also recorded: selective inhibitor
same,locomotor activation effects,[10],stronger locomotor activation effects than caffeine
same,wake promoting activity,[11],stronger wake promoting activity as compared to caffeine
same,protection against neurodegeneration and the loss of synaptic function,dopaminergic neurons,strongly protective
same,share of the methylxanthine metabolic by-products,[12]; FIG. 2,about 84%
same,share of caffeine ingested,[12],70-72%
